This data set is described as follows: Chemical stability in artificial gastric fluid (SGF without enzymes). Further: time not given here. Conditions: 10 μM in SGF without enzymes, pH=1.4, 37° C.

For the compound `C=CC(=O)N1CCC[C@@H](n2nc(-c3ccc(C(=O)Nc4ccccn4)cc3)c3cncc(Cl)c32)C1` [BCD-BTK -201], the “Amount of substance in the sample in % (chemical stability)” value (“Amount of substance in the sample in %” for short) was 100%.
In the case of `C=CC(=O)N1CCC[C@@H](n2nc(-c3ccc(Oc4ccncc4C#N)cc3)c3cncc(Cl)c32)C1` [BCD-BTK -202, (R)-4-(4-(1-(1-acryloylpiperidin-3-yl)-7-chloro-1H-pyrazolo[4,3-c]pyridin-3-yl)phenoxy)nicotinonitrile] it was 95.5%; in that of `C=CC(=O)N1CCC[C@@H](n2nc(-c3ccc(Oc4ccncc4C(N)=O)cc3)c3cncc(Cl)c32)C1` [BCD-BTK -203, (R)-4-(4-(1-(1-acryloylpiperidin-3-yl)-7-chloro-1H-pyrazolo[4,3-c]pyridin-3-yl)phenoxy)nicotinamide], 100%.
On to `C=CC(=O)N1CCC[C@@H](n2nc(-c3ccc(-n4ccc(=O)cc4)cc3F)c3cncc(Cl)c32)C1` [BCD-BTK -204, (R)-1-(4-(1-(1-acryloylpiperidin-3-yl)-7-chloro-1H-pyrazolo[4,3-c]pyridin-3-yl)-3-fluorophenyl)pyridin-4(1H)-one], for which the “Amount of substance in the sample in %” value was found to be 100%.
In the case of `C=CC(=O)N1CCC[C@@H](n2nc(-c3ccc(-n4ccc(=O)cc4)c(F)c3)c3cncc(Cl)c32)C1` [BCD-BTK -205, (R)-1-(4-(1-(1-acryloylpiperidin-3-yl)-7-chloro-1H-pyrazolo[4,3-c]pyridin-3-yl)-2-fluorophenyl)pyridin-4(1H)-one] it was 100%.
The same measure for `C=CC(=O)N1CCC[C@@H](n2nc(-c3cnc(-n4ccc(=O)c(C#N)c4)nc3)c3cncc(Cl)c32)C1` [BCD-BTK -206, (R)-1-(5-(1-(1-acryloylpiperidin-3-yl)-7-chloro-1H-pyrazolo[4,3-c]pyridin-3-yl)pyrimidin-2-yl)-4-oxo-1,4-dihydropyridine-3-carbonitrile]: 100%; for `C=CC(=O)N1CCC[C@@H](n2nc(-c3cnc(-n4ccc(=O)c(C(N)=O)c4)nc3)c3cncc(Cl)c32)C1` [BCD-BTK -207, (R)-1-(5-(1-(1-acryloylpiperidin-3-yl)-7-chloro-1H-pyrazolo[4,3-c]pyridin-3-yl)pyrimidin-2-yl)-4-oxo-1,4-dihydropyridine-3-carboxamide]: 100%.
In the case of `C=CC(=O)N1CCC[C@@H](n2nc(-c3ccc(-n4ccc(=O)c(C#N)c4)cc3)c3cncc(Cl)c32)C1` [BCD-BTK -208, (R)-1-(4-(1-(1-acryloylpiperidin-3-yl)-7-chloro-1H-pyrazolo[4,3-c]pyridin-3-yl)phenyl)-4-oxo-1,4-dihydropyridine-3-carbonitrile] it was 100%.
For `C=CC(=O)N1CCC[C@@H](n2nc(-c3ccc(C(=O)Nc4cc(C(F)(F)F)ccn4)cc3)c3cncc(Cl)c32)C1` [BCD-BTK -210, (R)-4-(1-(1-acryloylpiperidin-3-yl)-7-chloro-1H-pyrazolo[4,3-c]pyridin-3-yl)-N-(4-(trifluoromethyl)pyridin-2-yl)benzamide], the “Amount of substance in the sample in %” value was 96.1%.
The same measure for `C=CC(=O)N1CCC[C@@H](n2nc(-c3ccc(Oc4ccncc4)cc3)c3cncc(F)c32)C1` [BCD-BTK -211, (R)-1-(3-(7-fluoro-3-(4-(pyridin-4-yloxy)phenyl)-1H-pyrazolo[4,3-c]pyridin-1-yl)piperidin-1-yl)prop-2-en-1-one]: 100%.
The same measure for `C=CC(=O)N1CCC[C@@H](n2nc(-c3ccc(C(=O)Nc4ccc(F)cn4)cc3)c3cncc(Cl)c32)C1` [BCD-BTK -212, (R)-4-(1-(1-acryloylpiperidin-3-yl)-7-chloro-1H-pyrazolo[4,3-c]pyridin-3-yl)-N-(5-fluoropyridin-2-yl)benzamide]: 100%.
In the case of `C=CC(=O)N1CCC[C@@H](n2nc(-c3ccc(Oc4ccncc4C#N)cc3)c3cncc(C#N)c32)C1` [BCD-BTK -213, (R)-1-(1-acryloylpiperidin-3-yl)-3-(4-(3-cyanopyridin-4-yloxy)phenyl)-1H-pyrazolo[4,3-c]pyridine-7-carbonitrile] it was 97.4%.
Take `C=CC(=O)N1CCC[C@@H](n2nc(-c3ccc(C(=O)Nc4cc(C(F)(F)CC)ccn4)cc3)c3cncc(F)c32)C1` [BCD-BTK -214, (R)-4-(1-(1-acryloylpiperidin-3-yl)-7-fluoro-1H-pyrazolo[4,3-c]pyridin-3-yl)-N-(4-(1,1-difluoropropyl)pyridin-2-yl)benzamide]: the “Amount of substance in the sample in %” value was determined as 100%.
In the case of `C=CC(=O)N1CCC[C@@H](n2nc(-c3ccc(C(=O)Nc4cc(C(F)(F)CC)ccn4)cc3)c3cncc(Cl)c32)C1` [BCD-BTK -215, (R)-4-(1-(1-acryloylpiperidin-3-yl)-7-chloro-1H-pyrazolo[4,3-c]pyridin-3-yl)-N-(4-(1,1-difluoropropyl)pyridin-2-yl)benzamide] it was 100%; in that of `C=CC(=O)N1CCC[C@@H](n2nc(-c3ccc(Oc4cccnc4C#N)cc3)c3cncc(C#N)c32)C1` [BCD-BTK -216, (R)-1-(1-acryloylpiperidin-3-yl)-3-(4-(2-cyanopyridin-3-yloxy)phenyl)-1H-pyrazolo[4,3-c]pyridine-7-carbonitrile], 96.3%.
The same measure for `C=CC(=O)N1CCC[C@@H](n2nc(-c3ccc(Oc4ccncc4C#N)cc3)c3cncc(F)c32)C1` [BCD-BTK -217, (R)-4-(4-(1-(1-acryloylpiperidin-3-yl)-7-fluoro-1H-pyrazolo[4,3-c]pyridin-3-yl)phenoxy)nicotinonitrile]: 95.3%; for `C=CC(=O)N1CCC[C@@H](n2nc(-c3ccc(Oc4cccnc4C#N)cc3)c3cncc(Cl)c32)C1` [BCD-BTK -218, 3-(4-{7-chloro-1-[1-(prop-2-enoyl)piperidin-3-yl]-1H-pyrazolo[4,3-c]pyridin-3-yl}phenoxy)pyridine-2-carbonitrile]: 96%; for `C=CC(=O)N1CCC[C@@H](n2nc(-c3ccc(Oc4ccncc4)cc3)c3cncc(C#N)c32)C1` [BCD-BTK - 123, (R)-1-(1-acryloylpiperidin-3-yl)-3-(4(pyridin-4-yloxy)phenyl)-1H-pyrazolo[4,3-c]pyridin-7-carbonitrile]: 97%.
The same measure for `C=CC(=O)N1CCC[C@@H](n2nc(-c3ccc(Oc4ccncc4)cc3)c3cncc(Cl)c32)C1` [BCD-BTK - 125, (R)-1-(1-acryloylpiperidin-3-yl)-7-chloro-3-(4-(pyridin-4-yloxy)phenyl)-1H-pyrazolo[4,3-c]pyridine]: 100%.
As for `C=CC(=O)N1CCC[C@@H](n2nc(-c3ccc(Oc4ccncc4)cc3)c3c(N)ncc(C#N)c32)C1` [BCD-BTK - 134, (R)-1-(1-acryloylpiperidin-3-yl)-4-amino-3-(4-(pyridin-4-yloxy)phenyl)-1H-pyrazolo[4,3-c]pyridin-7-carbonitrile], the “Amount of substance in the sample in %” value is on record as 100%.
Regarding `C=CC(=O)N1CCC[C@@H](n2nc(-c3ccc(Oc4ccncc4)cc3)c3c(N)ncc(Cl)c32)C1` [BCD-BTK - 139, (R)-1-(1-acryloylpiperidin-3-yl)-7-chloro-3-(4-(pyridin-4-yloxy)phenyl)-1H-pyrazolo[4,3-c]pyridin-4-amine], the “Amount of substance in the sample in %” value is on record as 100%.
The same measure for `C=CC(=O)N1CCC[C@@H](n2nc(-c3ccc(C(=O)Nc4cccc(F)n4)cc3)c3cncc(F)c32)C1` [BCD-BTK - 248, (R)-4-(1-(1-acryloylpiperidin-3-yl)-7-fluoro-1H-pyrazolo[4,3-c]pyridin-3-yl)-N-(6-fluoropyridin-2-yl)benzamide]: 100%; for `C=CC(=O)N1CCC[C@@H](n2nc(-c3ccc(C(=O)Nc4ncccc4F)cc3)c3cncc(F)c32)C1` [BCD-BTK - 249, (R)-4-(1-(1-acryloylpiperidin-3-yl)-7-fluoro-1H-pyrazolo[4,3-c]pyridin-3-yl)-N-(3-fluoropyridin-2-yl)benzamide]: 100%; for `C=CC(=O)N1CCC[C@@H](n2nc(-c3ccc(C(=O)Nc4cccc(F)n4)cc3)c3c(N)ncc(Cl)c32)C1` [BCD-BTK - 250, (R)-4-(1-(1-acryloylpiperidin-3-yl)-4-amino-7-chloro-1H-pyrazolo[4,3-c]pyridin-3-yl)-N-(6-fluoropyridin-2-yl)benzamide]: 100%.
In the case of `C=CC(=O)N1CCC[C@@H](n2nc(-c3ccc(C(=O)Nc4cc(C(F)(F)F)ccn4)cc3)c3c(N)ncc(Cl)c32)C1` [BCD-BTK - 251, (R)-4-(1-(1-acryloylpiperidin-3-yl)-4-amino-7-chloro-1H-pyrazolo[4,3-c]pyridin-3-yl)-N-(4-(trifluoromethyl)pyridin-2-yl)benzamide] it was 100%; in that of `C=CC(=O)N1CCC[C@@H](n2nc(-c3ccc(C(=O)Nc4cc(C(F)(F)CCC)ccn4)cc3)c3cncc(Cl)c32)C1` [BCD-BTK - 252, (R)-4-(1-(1-acryloylpiperidin-3-yl)-7-chloro-1H-pyrazolo[4,3-c]pyridin-3-yl)-N-(4-(1,1-difluorobutyl)pyridin-2-yl)benzamide], 94.4%; in that of `C=CC(=O)N1CCC[C@@H](n2nc(-c3ccc(C(=O)Nc4cc(C(F)(F)CCC)ccn4)cc3)c3c(N)ncc(Cl)c32)C1` [BCD-BTK - 254, (R)-4-(1-(1-acryloylpiperidin-3-yl)-4-amino-7-chloro-1H-pyrazolo[4,3-c]pyridin-3-yl)-N-(4-(1,1-difluorobutyl)pyridin-2-yl)benzamide], 100%.
The same measure for `C=CC(=O)N1CCC[C@@H](n2nc(-c3ccc(Oc4cccnc4C(N)=O)cc3)c3cncc(F)c32)C1` [BCD-BTK - 255, (R)-3-(4-(1-(1-acryloylpiperidin-3-yl)-7-fluoro-1H-pyrazolo[4,3-c]pyridin-3-yl)phenoxy)picolinamide]: 100%.

The values above are taken from US20190352276A1, “INHIBITORS OF BRUTON'S TYROSINE KINASE” (Joint Stock Company "Biocad", priority 2016, published 2019).
